Entries after “also recorded” stand apart in the source; their conditions may differ.
Experiments:
[1] = tested on: HEK293 cells; details: treated for 5 days; HEK293 cells transduced at 1×10^5 v.g./cell, green fluorescence 3 days thereafter, vs vector without treatment
[2] = tested on: HEK293 cells producing rAAV1; test: Evaluation of AAV vector-producing ability by treatment with chemical substance (virus titer by qPCR); format: cell-based, human; details: for effects of enhancing the amount of production of AAV vectors (v.g.): HEK293 cells, serum-free E-MEM supplemented with the substance at various concentrations, culture for 3 days, vs untreated control
Protocol: The cells of the immortalized cell line derived from the human embryonic kidney (HEK293 cells) purchased from ATCC were cultured in E-MEM supplemented with 10% fetal bovine serum, penicillin, and streptomycin at 37° C. in the presence of 5% CO2.
The recombinant adeno-associated virus 1 (rAAV1) was prepared with the use of 3 types of plasmids: pAAV-ZsGreen1 (TaKaRa Bio), pAAV2/1, and pHelper. A mixture of 3 types of plasmids for preparation of rAAV1 was adjusted to bring the mixing ratio of DNA to Polyethylenimine Max (PEI: Polysciences) (DNA: PEI) to 1:2 in OPTI-MEM, and the reaction was allowed to proceed at room temperature for 15 minutes. After 90% or higher confluent HEK293 cells were transfected with E-MEM supplemented with 10% FBS for 6 hours, culture was performed in serum-free E-MEM to prepare the AAV type 1 vector.
Genome DNA of rAAV1 was extracted to measure the virus titer. Specifically, the culture supernatant was collected and treated with benzonase at 37° C. for 1 hour, and the viral genome DNA was extracted and purified using the DNeasy Blood & Tissue kit (QIAGEN). The virus titer was measured by real-time PCR in triplicate. qPCR was performed using primers targeting Zs-Green 1.
The virus titers achieved with the use of the chemical substances were compared with the virus titer of the control cells treated with serum-free E-MEM not supplemented with chemical substances.

Compound: [NH3+][Pt-2]1([NH3+])[O]C(=O)C2(CCC2)C(=O)[O]1 [Carboplatin]
- infectious ability of the rAAV vector produced by treatment [1]: retains the infectious ability equivalent to that of the AAV vector prepared without treatment
- effects of enhancing the amount of production of AAV vectors (v.g.) [2]: has effects of enhancing the amount of production of AAV vectors; also recorded: effects of enhancing production of rAAV vectors can be achieved
- amount of production of AAV vectors (v.g.) with the elapse of time ([2]; time after initiation of vector production, observed for 4 to 7 days): increasing with the elapse of time

Compound: N.N.[Cl][Pt][Cl] [Cisplatin]
- effects of enhancing the amount of production of AAV vectors (v.g.) [2]: has effects of enhancing the amount of production of AAV vectors; also recorded: effects of enhancing production of rAAV vectors can be achieved

Compound: [NH2][Pt]1([NH2])[O]CC(=O)[O]1 [Nedaplatin]
- effects of enhancing the amount of production of AAV vectors (v.g.) [2]: has effects of enhancing the amount of production of AAV vectors; also recorded: effects of enhancing production of rAAV vectors can be achieved

From patent US20250188480A1, “AGENT FOR ENHANCING PRODUCTION OF VIRAL VECTOR AND METHOD FOR PRODUCING VIRAL VECTOR” (priority 2022, published 2025)
